Measurements published in article PMC10507085, “Pharmacological inhibition of TBK1/IKKε blunts immunopathology in a murine model of SARS-CoV-2 infection” (Nature Communications, 2023).

Experiments:
Test in all cases: biochemical
Parameters in all cases: KINOMEscan competition binding, DNA-tagged kinase against immobilised ligand, qPCR read-out
Conditions in all cases: read-out: Percent Control
AKT2 = AKT2 (Homo sapiens, UniProt P31751)
CAMK2A = CAMK2A (Homo sapiens, UniProt Q9UQM7)
CSNK1E = CSNK1E (Homo sapiens, UniProt P49674)
CSNK1G1 = CSNK1G1 (Homo sapiens, UniProt Q9HCP0)
DYRK1A = DYRK1A (Homo sapiens, UniProt Q13627)
EPHA1 = EPHA1 (Homo sapiens, UniProt P21709)
EPHA2 = EPHA2 (Homo sapiens, UniProt P29317)
GRK1 = GRK1 (Homo sapiens, UniProt Q15835)
MAP3K1 = MAP3K1 (Homo sapiens, UniProt Q13233)
MAPK6 = MAPK6 (Homo sapiens, UniProt Q16659)
MERTK = MERTK (Homo sapiens, UniProt Q12866)
NEK5 = NEK5 (Homo sapiens, UniProt Q6P3R8)
PRKCQ = PRKCQ (Homo sapiens, UniProt Q04759)
PRKD1 = PRKD1 (Homo sapiens, UniProt Q15139)
RET = RET (Homo sapiens, UniProt P07949)
[1] = biological target: T1, RPS6KA4(Kin.Dom.1-N-terminal) (Homo sapiens, UniProt O75676)
T1 construct: Kin.Dom.1 N-terminal

SLK = SLK (Homo sapiens, UniProt Q9H2G2)
STK38 = STK38 (Homo sapiens, UniProt Q15208)
TLK2 = TLK2 (Homo sapiens, UniProt Q86UE8)
TRPM6 = TRPM6 (Homo sapiens, UniProt Q9BX84)

Sequence of MAPK6 (Q16659 whole entry): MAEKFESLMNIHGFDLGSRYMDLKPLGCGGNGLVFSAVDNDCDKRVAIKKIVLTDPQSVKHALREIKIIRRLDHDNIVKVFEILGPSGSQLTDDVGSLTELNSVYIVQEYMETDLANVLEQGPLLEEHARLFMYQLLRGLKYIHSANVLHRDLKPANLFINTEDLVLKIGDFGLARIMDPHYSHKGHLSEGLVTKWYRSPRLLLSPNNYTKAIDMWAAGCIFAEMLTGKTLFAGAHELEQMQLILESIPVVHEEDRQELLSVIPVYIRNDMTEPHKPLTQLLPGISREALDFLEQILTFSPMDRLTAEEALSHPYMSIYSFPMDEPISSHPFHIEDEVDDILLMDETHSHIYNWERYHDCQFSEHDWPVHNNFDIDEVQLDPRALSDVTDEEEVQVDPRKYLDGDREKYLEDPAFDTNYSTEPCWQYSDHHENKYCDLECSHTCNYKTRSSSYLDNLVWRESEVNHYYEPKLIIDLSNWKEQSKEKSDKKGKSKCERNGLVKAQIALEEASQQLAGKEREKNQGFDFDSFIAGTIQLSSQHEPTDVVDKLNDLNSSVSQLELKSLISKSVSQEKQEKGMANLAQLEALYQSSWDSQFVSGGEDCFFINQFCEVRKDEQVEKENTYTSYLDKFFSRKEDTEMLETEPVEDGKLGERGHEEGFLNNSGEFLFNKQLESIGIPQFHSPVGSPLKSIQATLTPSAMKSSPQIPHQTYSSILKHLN
Sequence of STK38 (Q15208 whole entry): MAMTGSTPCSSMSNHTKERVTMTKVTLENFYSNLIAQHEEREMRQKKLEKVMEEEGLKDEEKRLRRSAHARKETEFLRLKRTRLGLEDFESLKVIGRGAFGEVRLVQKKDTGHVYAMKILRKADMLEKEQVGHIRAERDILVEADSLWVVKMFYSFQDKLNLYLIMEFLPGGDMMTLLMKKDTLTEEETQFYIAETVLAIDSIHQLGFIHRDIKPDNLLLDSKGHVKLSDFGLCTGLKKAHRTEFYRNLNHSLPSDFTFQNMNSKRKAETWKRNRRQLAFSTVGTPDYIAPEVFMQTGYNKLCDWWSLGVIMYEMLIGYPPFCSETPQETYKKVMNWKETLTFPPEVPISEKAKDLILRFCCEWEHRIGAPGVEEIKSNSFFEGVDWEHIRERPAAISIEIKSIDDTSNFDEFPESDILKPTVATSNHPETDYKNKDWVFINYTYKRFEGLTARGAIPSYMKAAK
Sequence of MAP3K1 (Q13233 whole entry): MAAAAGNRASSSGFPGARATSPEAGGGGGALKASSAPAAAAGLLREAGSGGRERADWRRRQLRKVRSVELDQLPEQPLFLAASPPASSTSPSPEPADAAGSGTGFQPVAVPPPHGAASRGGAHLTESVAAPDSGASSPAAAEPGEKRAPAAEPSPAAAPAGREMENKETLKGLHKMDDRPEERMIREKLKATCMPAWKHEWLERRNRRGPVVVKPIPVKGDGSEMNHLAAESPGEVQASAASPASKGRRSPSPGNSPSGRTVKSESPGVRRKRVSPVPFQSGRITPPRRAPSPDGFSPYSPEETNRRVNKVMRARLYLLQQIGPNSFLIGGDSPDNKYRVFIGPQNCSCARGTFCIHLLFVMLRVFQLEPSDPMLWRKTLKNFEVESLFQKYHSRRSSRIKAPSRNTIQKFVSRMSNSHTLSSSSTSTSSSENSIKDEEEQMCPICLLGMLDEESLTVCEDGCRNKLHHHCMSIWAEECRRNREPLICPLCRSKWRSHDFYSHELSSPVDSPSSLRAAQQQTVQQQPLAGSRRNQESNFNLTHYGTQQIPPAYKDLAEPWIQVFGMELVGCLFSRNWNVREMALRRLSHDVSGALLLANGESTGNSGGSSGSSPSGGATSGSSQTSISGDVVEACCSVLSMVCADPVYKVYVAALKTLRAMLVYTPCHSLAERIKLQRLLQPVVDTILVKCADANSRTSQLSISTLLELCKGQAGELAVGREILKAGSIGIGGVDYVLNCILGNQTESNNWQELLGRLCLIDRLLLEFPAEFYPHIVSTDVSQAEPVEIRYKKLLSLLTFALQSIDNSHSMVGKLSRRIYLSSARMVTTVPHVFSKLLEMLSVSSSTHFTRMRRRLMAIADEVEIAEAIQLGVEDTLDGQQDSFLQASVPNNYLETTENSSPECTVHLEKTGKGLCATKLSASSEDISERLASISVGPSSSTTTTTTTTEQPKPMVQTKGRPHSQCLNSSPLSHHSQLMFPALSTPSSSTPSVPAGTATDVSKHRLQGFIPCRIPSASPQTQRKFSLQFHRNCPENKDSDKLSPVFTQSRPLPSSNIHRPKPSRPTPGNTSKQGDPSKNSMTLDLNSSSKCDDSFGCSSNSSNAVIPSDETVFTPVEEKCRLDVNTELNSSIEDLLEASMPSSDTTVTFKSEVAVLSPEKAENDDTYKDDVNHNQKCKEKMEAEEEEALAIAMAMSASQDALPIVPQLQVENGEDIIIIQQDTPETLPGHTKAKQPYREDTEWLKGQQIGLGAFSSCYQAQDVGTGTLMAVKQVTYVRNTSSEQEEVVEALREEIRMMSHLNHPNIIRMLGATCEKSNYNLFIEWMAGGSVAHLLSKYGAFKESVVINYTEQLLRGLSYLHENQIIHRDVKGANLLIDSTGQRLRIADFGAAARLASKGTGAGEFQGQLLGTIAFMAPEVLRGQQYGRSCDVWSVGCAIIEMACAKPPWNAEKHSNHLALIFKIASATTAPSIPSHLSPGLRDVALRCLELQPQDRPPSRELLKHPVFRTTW
Sequence of AKT2 (P31751 whole entry): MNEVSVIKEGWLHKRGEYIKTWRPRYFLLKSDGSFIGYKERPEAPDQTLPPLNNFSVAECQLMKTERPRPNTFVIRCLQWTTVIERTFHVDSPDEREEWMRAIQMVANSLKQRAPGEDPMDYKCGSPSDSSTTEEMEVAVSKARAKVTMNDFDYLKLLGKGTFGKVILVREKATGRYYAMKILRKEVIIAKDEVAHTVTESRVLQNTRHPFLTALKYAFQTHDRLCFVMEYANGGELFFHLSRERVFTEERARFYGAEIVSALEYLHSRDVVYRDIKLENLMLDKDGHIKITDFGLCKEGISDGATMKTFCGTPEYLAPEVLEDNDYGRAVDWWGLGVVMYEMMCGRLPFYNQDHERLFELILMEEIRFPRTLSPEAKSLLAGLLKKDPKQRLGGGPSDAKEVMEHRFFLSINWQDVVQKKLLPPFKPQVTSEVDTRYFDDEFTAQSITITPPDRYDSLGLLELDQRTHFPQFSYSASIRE
Sequence of GRK1 (Q15835 whole entry): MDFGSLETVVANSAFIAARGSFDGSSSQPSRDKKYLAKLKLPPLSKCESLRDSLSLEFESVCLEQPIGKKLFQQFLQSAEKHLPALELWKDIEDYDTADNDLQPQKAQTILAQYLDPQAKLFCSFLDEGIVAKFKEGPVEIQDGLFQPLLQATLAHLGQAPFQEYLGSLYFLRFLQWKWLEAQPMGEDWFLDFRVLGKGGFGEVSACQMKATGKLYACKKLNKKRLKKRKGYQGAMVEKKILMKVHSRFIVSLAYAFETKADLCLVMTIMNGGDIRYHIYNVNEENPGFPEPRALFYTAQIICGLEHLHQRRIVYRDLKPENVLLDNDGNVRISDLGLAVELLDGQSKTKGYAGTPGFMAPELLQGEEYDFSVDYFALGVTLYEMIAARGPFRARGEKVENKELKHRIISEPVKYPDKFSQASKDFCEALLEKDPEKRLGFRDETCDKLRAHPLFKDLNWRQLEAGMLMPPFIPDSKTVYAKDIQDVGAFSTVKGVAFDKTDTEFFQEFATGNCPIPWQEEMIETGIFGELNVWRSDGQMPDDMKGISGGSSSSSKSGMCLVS
Sequence of EPHA1 (P21709 whole entry): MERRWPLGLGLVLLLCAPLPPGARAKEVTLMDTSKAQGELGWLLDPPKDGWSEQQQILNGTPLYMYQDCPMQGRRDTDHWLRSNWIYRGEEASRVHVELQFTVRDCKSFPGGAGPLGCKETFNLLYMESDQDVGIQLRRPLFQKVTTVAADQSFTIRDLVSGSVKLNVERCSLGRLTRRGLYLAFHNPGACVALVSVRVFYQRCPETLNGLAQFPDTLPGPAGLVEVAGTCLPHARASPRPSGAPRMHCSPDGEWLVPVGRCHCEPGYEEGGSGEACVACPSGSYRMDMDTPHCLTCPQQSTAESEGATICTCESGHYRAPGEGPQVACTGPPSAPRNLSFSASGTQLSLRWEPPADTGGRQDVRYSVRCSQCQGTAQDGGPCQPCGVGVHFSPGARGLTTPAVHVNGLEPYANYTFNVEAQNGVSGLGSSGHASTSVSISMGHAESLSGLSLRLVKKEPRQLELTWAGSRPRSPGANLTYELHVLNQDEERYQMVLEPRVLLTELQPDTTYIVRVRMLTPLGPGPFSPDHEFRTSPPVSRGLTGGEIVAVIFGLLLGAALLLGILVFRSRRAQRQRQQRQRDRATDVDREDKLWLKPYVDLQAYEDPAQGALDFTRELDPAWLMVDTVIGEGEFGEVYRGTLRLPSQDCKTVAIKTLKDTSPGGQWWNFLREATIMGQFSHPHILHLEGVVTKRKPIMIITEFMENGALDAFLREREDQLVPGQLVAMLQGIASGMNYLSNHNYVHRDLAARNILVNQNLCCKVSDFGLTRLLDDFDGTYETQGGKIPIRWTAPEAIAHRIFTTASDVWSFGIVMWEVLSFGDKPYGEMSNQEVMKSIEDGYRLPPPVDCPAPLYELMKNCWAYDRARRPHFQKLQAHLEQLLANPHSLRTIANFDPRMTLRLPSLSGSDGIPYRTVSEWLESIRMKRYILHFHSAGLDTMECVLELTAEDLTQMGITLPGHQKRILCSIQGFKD

Oc1ccc(C2=Cc3ccc(O)cc3OC2)cc1 [compound 1, idronoxil]
remaining binding at 10 µM (AKT2): 90%
remaining binding at 10 µM (CAMK2A): 87%
remaining binding at 10 µM (CSNK1E): 74%
remaining binding at 10 µM (CSNK1G1): 95%
remaining binding at 10 µM (DYRK1A): 34%
remaining binding at 10 µM (EPHA1): 69%
remaining binding at 10 µM (EPHA2): 78%
remaining binding at 10 µM (GRK1): 100%
remaining binding at 10 µM (MAP3K1): 76%
remaining binding at 10 µM (MAPK6): 96%
remaining binding at 10 µM (MERTK): 97%
remaining binding at 10 µM (NEK5): 89%
remaining binding at 10 µM (PRKCQ): 73%
remaining binding at 10 µM (PRKD1): 96%
remaining binding at 10 µM (RET): 96%
remaining binding at 10 µM [1]: 83%
remaining binding at 10 µM (SLK): 73%
remaining binding at 10 µM (STK38): 68%
remaining binding at 10 µM (TLK2): 86%
remaining binding at 10 µM (TRPM6): 88%
